From PubChem BioAssay (NCI)
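A five-concentration, 48-hour dose response in 96-well plates underlies each endpoint, interpolated linearly between surrounding concentrations. At the GI50, growth is halved. TGI marks complete inhibition of growth.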

Assays:
Assay in all cases: growth of human tumour cells (NCI), 48 h
[1] = system: 786-0 renal
[2] = system: A498 renal
[3] = system: A549 NSCLC
[4] = system: ACHN renal
[5] = system: BT-549 breast
[6] = system: CAKI-1 renal
[7] = system: CCRF-CEM leukemia
[8] = system: COLO 205 colon
[9] = system: DU-145 prostate
[10] = system: EKVX NSCLC
[11] = system: HCC-2998 colon
[12] = system: HCT-116 colon
[13] = system: HCT-15 colon
[14] = system: HL-60(TB) leukemia
[15] = system: HOP-62 NSCLC
[16] = system: HOP-92 NSCLC
[17] = system: HS 578T breast
[18] = system: HT29 colon
[19] = system: IGROV1 ovarian
[20] = system: K-562 leukemia
[21] = system: KM12 colon
[22] = system: LOX IMVI melanoma
[23] = system: M14 melanoma
[24] = system: MALME-3M melanoma
[25] = system: MCF7 breast
[26] = system: MDA-MB-231 breast
[27] = system: MDA-MB-435
[28] = system: MDA-MB-468 breast
[29] = system: MOLT-4 leukemia
[30] = system: NCI-H226 lung
[31] = system: NCI-H23 lung
[32] = system: NCI-H460 lung
[33] = system: NCI-H522 lung
[34] = system: NCI/ADR-RES ovarian
[35] = system: OVCAR-3 ovarian
[36] = system: OVCAR-4 ovarian
[37] = system: OVCAR-5 ovarian
[38] = system: OVCAR-8 ovarian
[39] = system: PC-3 prostate
[40] = system: RPMI-8226 leukemia
[41] = system: RXF 393 renal
[42] = system: SF-268 CNS
[43] = system: SF-295 CNS
[44] = system: SF-539 CNS
[45] = system: SK-MEL-2 melanoma
[46] = system: SK-MEL-28 melanoma
[47] = system: SK-MEL-5 melanoma
[48] = system: SK-OV-3 ovarian
[49] = system: SN12C renal
[50] = system: SNB-19 CNS
[51] = system: SNB-75 CNS
[52] = system: SR leukemia
[53] = system: SW-620 colon
[54] = system: T-47D breast
[55] = system: TK-10 renal
[56] = system: U251 CNS
[57] = system: UACC-257 melanoma
[58] = system: UACC-62 melanoma
[59] = system: UO-31 renal

## COc1cccc(-c2ccc(/C=N/NC(=O)c3[nH]c4ccc(Br)cc4c3-c3ccccc3)s2)c1
[1]
  GI50: 3.7 µM
  TGI: > 100 µM
[2]
  GI50: 82.3 µM
  TGI: > 100 µM
[3]
  GI50: 4.71 µM
  TGI: > 100 µM
[4]
  GI50: 3.96 µM
  TGI: > 100 µM
[5]
  GI50: 3.96 µM
  TGI: 9.44 µM
[6]
  GI50: 3.19 µM
  TGI: 63.5 µM
[7]
  GI50: 3.15 µM
  TGI: 13.3 µM
[8]
  GI50: 3.28 µM
  TGI: 12.9 µM
[9]
  GI50: 3.62 µM
  TGI: > 100 µM
[10]
  GI50: 7.39 µM
  TGI: > 100 µM
[11]
  GI50: 4.21 µM
  TGI: > 100 µM
[12]
  GI50: 2.97 µM
  TGI: 10.5 µM
[13]
  GI50: 3.36 µM
  TGI: > 100 µM
[14]
  GI50: 2.16 µM
  TGI: 5.21 µM
[15]
  GI50: 4.39 µM
  TGI: > 100 µM
[16]
  GI50: 9.83 µM
  TGI: > 100 µM
[17]
  GI50: 2.4 µM
  TGI: 8.62 µM
[18]
  GI50: 2.81 µM
  TGI: 10.1 µM
[19]
  GI50: 4.26 µM
  TGI: > 100 µM
[20]
  GI50: 2.18 µM
  TGI: > 100 µM
[21]
  GI50: 3.08 µM
  TGI: 19.3 µM
[22]
  GI50: 2.45 µM
  TGI: 36.4 µM
[23]
  GI50: 3.76 µM
  TGI: > 100 µM
[24]
  GI50: 5.66 µM
  TGI: > 100 µM
[25]
  GI50: 1.82 µM
  TGI: > 100 µM
[26]
  GI50: 4.77 µM
  TGI: 94.7 µM
[27]
  GI50: 1.61 µM
  TGI: 4.56 µM
[28]
  GI50: 2.67 µM
  TGI: 19.3 µM
[29]
  GI50: 3.37 µM
  TGI: 14.9 µM
[30]
  GI50: 3.39 µM
  TGI: > 100 µM
[31]
  GI50: 5.55 µM
  TGI: 56.7 µM
[32]
  GI50: 3.01 µM
  TGI: 12.5 µM
[33]
  GI50: 1.11 µM
  TGI: 11.1 µM
[34]
  GI50: 2.16 µM
  TGI: 5.91 µM
[35]
  GI50: 2.24 µM
  TGI: 7.69 µM
[36]
  GI50: 8.82 µM
  TGI: > 100 µM
[37]
  GI50: 3.64 µM
  TGI: 25.8 µM
[38]
  GI50: 3.24 µM
  TGI: 16.9 µM
[39]
  GI50: 3.75 µM
  TGI: > 100 µM
[40]
  GI50: 3.84 µM
  TGI: > 100 µM
[41]
  GI50: 5.03 µM
  TGI: 93.5 µM
[42]
  GI50: 3.72 µM
  TGI: 84.3 µM
[43]
  GI50: 3.07 µM
  TGI: 87 µM
[44]
  GI50: 2.51 µM
  TGI: 6.8 µM
[45]
  GI50: 5.98 µM
  TGI: > 100 µM
[46]
  GI50: 8.33 µM
  TGI: > 100 µM
[47]
  GI50: 2.7 µM
  TGI: 10.4 µM
[48]
  GI50: 5.45 µM
  TGI: > 100 µM
[49]
  GI50: 3.74 µM
  TGI: 30.9 µM
[50]
  GI50: 9.17 µM
  TGI: > 100 µM
[51]
  GI50: 2.63 µM
  TGI: 9.12 µM
[52]
  GI50: 2.56 µM
  TGI: 17.7 µM
[53]
  GI50: 3.71 µM
  TGI: > 100 µM
[54]
  GI50: 5.6 µM
  TGI: > 100 µM
[55]
  GI50: 9.97 µM
  TGI: > 100 µM
[56]
  GI50: 4.92 µM
  TGI: 72.2 µM
[57]
  GI50: 25.5 µM
  TGI: > 100 µM
[58]
  GI50: 3.35 µM
  TGI: > 100 µM
[59]
  GI50: 5.4 µM
  TGI: > 100 µM
